Data on 5 compounds can be found in patent publication US20060069132A1, “Azolecarboxamide herbicides” (priority 2004, published 2006).

Assay in all cases: Test C postemergence herbicide test
One test concerns windgrass. It counts as in vivo, Apera spica-venti. The procedure:
(§1) At the same time, plants selected from these crop and weed species and also winter barley (Hordeum vulgare L.), blackgrass (Alopecurus myosuroides Huds.), canarygrass (Phalaris minor Retz.), chickweed (Stellaria media (L.) Vill.), downy bromegrass (Bromus tectorum L.), green foxtail (Setaria viridis (L.) Beauv.), Italian ryegrass (Lolium multiflorum Lam.), wheat (Triticum aestivum L.), wild oat (Avenafatua L.) and windgrass (Apera spica-venti (L.) Beauv.) were treated with postemergence applications of some of the test chemicals formulated in the same manner. Plants ranged in height from 2 to 18 cm (1- to 4-leaf stage) for postemergence treatments. Plant species in the flooded paddy test consisted of rice (Oryza sativa), smallflower umbrella sedge (Cyperus difformis L.), ducksalad (Heteranthera limosa (Sw.) Willd.) and barnyardgrass (Echinochloa crus-galli (L.) Beauv.) grown to the 2-leaf stage for testing. Treated plants and controls were maintained in a greenhouse for 12 to 14 days, after which time all species were compared to controls and visually evaluated. Plant response ratings, summarized in Table C, are based on a scale of 0 to 100 where 0 is no effect and 100 is complete control. A dash (-) response means no test result.

A further test has as its system winter barley. Type of test: in vivo, Hordeum vulgare. Conditions: for Barley, Winter plant response rating: 500 g ai/ha. The method, then: as §1
The next test concerns canarygrass. It counts as in vivo, Phalaris minor. The procedure: as §1
For the next test, the system named is blackgrass. It counts as in vivo, Alopecurus myosuroides. Conditions: for Blackgrass plant response rating: 500 g ai/ha. The method, then: as §1
Another test relates to wild oat. It counts as in vivo, Avenafatua. The method, then:
as §1

Setting [1] is: Postemergence, 500 g ai/ha, scale 0 to 100, 0 no effect, 100 complete control.
Where [2] appears, read: postemergence, 125 g ai/ha, scale 0 to 100.
Setting [3] is: postemergence, 62 g ai/ha, scale 0 to 100.
Where [4] appears, read: Postemergence, 125 g ai/ha, scale 0 to 100, 0 no effect, 100 complete control.
The mark [5] stands for this setting: Postemergence, 250 g ai/ha, scale 0 to 100, 0 no effect, 100 complete control.
Setting [6] is: postemergence, 62 g ai/ha, scale 0 to 100 (0 no effect, 100 complete control).
Setting [7] is: postemergence, 31 g ai/ha, scale 0 to 100.
[8] abbreviates: Postemergence, 500 g ai/ha, scale 0 to 100.

As for `C=CCNC(=O)c1cccc(NC(=O)c2nn(C(C)(C)C)nc2CC)c1` [Compound 414], the entries for the “Plant response rating, Windgrass” value in the test on windgrass (setting [1]), in the test on windgrass (setting [2]) and with windgrass (setting [3]) were 65, 60 and 55, respectively. Also, the “Barley, Winter plant response rating” value with winter barley (Postemergence, scale 0 to 100) is recorded as 45. Also, the results for the “Plant response rating, Barley, Winter” value with winter barley (setting [4]), in the test on winter barley (setting [5]) and in the test on winter barley (setting [6]) were 30, 45 and 10, respectively. The “Plant response rating, Canarygrass” value in the test on canarygrass (setting [5]) amounted to 50; in the test with canarygrass (setting [1]), 60; with canarygrass (setting [2]), 45; with canarygrass (setting [3]), 45. The “Blackgrass plant response rating” value in the test with blackgrass (Postemergence, scale 0 to 100) is on record as 60. In addition, the “Plant response rating, Blackgrass” value amounted to 45 with blackgrass (setting [5]), 40 with blackgrass (setting [2]) and 40 in the test with blackgrass (setting [3]). The “Plant response rating, Oat, Wild” value with wild oat (setting [1]) came out at 55; in the test on wild oat (setting [2]), 45; with wild oat (setting [3]) it was 35.

`CCn1nc(C(C)(C)C)cc1C(=O)Nc1cc(C(=S)N(C)C)ccn1` [Compound 334]: the “Plant response rating, Windgrass” value with windgrass (setting [5]) is listed as 75; in the test on windgrass (setting [2]), 60; in the test on windgrass (setting [3]) it was 60. Besides, the “Plant response rating, Barley, Winter” value in the test with winter barley (setting [4]) is on record as 30; in the test on winter barley (setting [5]), 30; with winter barley (setting [7]), 20; in the test on winter barley (setting [6]), 20. Besides, the “Plant response rating, Canarygrass” value in the test on canarygrass (setting [5]) was 45; in the test with canarygrass (setting [2]), 35; in the test on canarygrass (setting [7]) it was 20; in the test on canarygrass (setting [3]), 25. For the same compound, the “Plant response rating, Blackgrass” value came out at 95 in the test on blackgrass (setting [5]), 95 in the test on blackgrass (setting [2]), 75 with blackgrass (setting [7]) and 90 in the test on blackgrass (setting [3]). The “Plant response rating, Oat, Wild” value with wild oat (setting [5]) is recorded as 95; with wild oat (setting [2]) it was 75; with wild oat (setting [3]), 55.

Consider `CCn1nc(C(C)(C)C)cc1C(=O)Nc1cccc(OC(F)F)c1` [Compound 332], for which the “Windgrass plant response rating” value in the test on windgrass (setting [8]) turned out to be 75. For the same compound, the entries for the “Plant response rating, Windgrass” value in the test on windgrass (setting [5]), in the test on windgrass (setting [2]) and in the test with windgrass (setting [3]) were 65, 60 and 35, respectively. In the test with winter barley (Postemergence, scale 0 to 100), the “Barley, Winter plant response rating” value is 40. The results for the “Plant response rating, Barley, Winter” value in the test on winter barley (setting [4]), in the test with winter barley (setting [5]) and in the test with winter barley (setting [6]) were 35, 40 and 35, respectively. In addition, the “Canarygrass plant response rating” value in the test on canarygrass (setting [8]) worked out at 70. Besides, the “Plant response rating, Canarygrass” value in the test on canarygrass (setting [5]) amounted to 60; with canarygrass (setting [2]), 45; with canarygrass (setting [3]), 35. In addition, in the test on blackgrass (Postemergence, scale 0 to 100), the “Blackgrass plant response rating” value came to 70. Also, the “Plant response rating, Blackgrass” value in the test on blackgrass (setting [5]) amounted to 100; with blackgrass (setting [2]), 70; in the test with blackgrass (setting [3]), 60. For the same compound, the “Oat, Wild plant response rating” value in the test on wild oat (setting [8]) was 70. The results for the “Plant response rating, Oat, Wild” value in the test on wild oat (setting [5]), with wild oat (setting [2]) and with wild oat (setting [3]) were 70, 65 and 50, respectively.

Take `CCOC(=O)c1cccc(NC(=O)c2nn(C(C)(C)CC)nc2CC)c1` [Compound 375]: the “Plant response rating, Windgrass” value in the test on windgrass (setting [2]) is 60; in the test on windgrass (setting [3]), 40. The “Plant response rating, Barley, Winter” value in the test with winter barley (setting [4]) is listed as 30; with winter barley (setting [5]), 40; with winter barley (setting [7]), 10; in the test with winter barley (setting [6]), 20. The “Plant response rating, Canarygrass” value is 35 in the test with canarygrass (setting [5]), 35 in the test on canarygrass (setting [2]), 30 in the test with canarygrass (setting [7]) and 30 in the test with canarygrass (setting [3]). The “Plant response rating, Blackgrass” value is 55 with blackgrass (setting [5]), 45 with blackgrass (setting [2]), 30 with blackgrass (setting [7]) and 35 with blackgrass (setting [3]). Further, the “Plant response rating, Oat, Wild” value in the test on wild oat (setting [2]) is 55; in the test on wild oat (setting [3]) it was 45.

Turning to `CCNC(=O)c1ccc(F)c(NC(=O)c2c3c(nn2CC)C(C)(C)CC3)c1` [Compound 353], the “Plant response rating, Windgrass” value worked out at 10 in the test on windgrass (setting [5]), 10 with windgrass (setting [1]), 10 with windgrass (setting [2]) and 0 in the test on windgrass (setting [3]). The “Barley, Winter plant response rating” value in the test with winter barley (Postemergence, scale 0 to 100) turned out to be 25. Besides, the “Plant response rating, Barley, Winter” value is on record as 15 with winter barley (setting [4]), 20 with winter barley (setting [5]) and 5 in the test on winter barley (setting [6]). The “Plant response rating, Canarygrass” value is given as 10 in the test on canarygrass (setting [5]), 20 with canarygrass (setting [1]), 10 with canarygrass (setting [2]) and 0 with canarygrass (setting [3]). The “Blackgrass plant response rating” value in the test with blackgrass (Postemergence, scale 0 to 100) worked out at 70. In addition, the “Plant response rating, Blackgrass” value in the test with blackgrass (setting [5]) came to 60; in the test on blackgrass (setting [2]) it was 20; in the test with blackgrass (setting [3]), 0. Also, the “Plant response rating, Oat, Wild” value came to 40 in the test on wild oat (setting [5]), 60 in the test with wild oat (setting [1]), 30 with wild oat (setting [2]) and 10 in the test with wild oat (setting [3]).
